Measurements published in US11667632B2, “2-(1H-indazol-3-yl)-3H-imidazo[4,5-C]pyridines and their anti-inflammatory uses thereof” (BioSplice Therapeutics, Inc., priority 2015, dated 2023).

System: IL-6
Assay: Inhibition of IL-6 in LPS-stimulated human monocyte cells (THP-1), HTRF
Assay type: cell-based
Settings: Homo sapiens; THP-1 cells, LPS 500 ng/mL, IL-6 by HTRF
Protocol: Human Monocyte Cell Culture: A human monocyte cell line (THP-1 cells; Catalog #TIB-202, ATCC, Manassas, Va.) was cultured in Roswell Park Memorial Institute (RPMI) 1640 Medium (Catalog #21870-100, Buffalo, N.Y.) with 1% L-glutamine, 1% HEPES, 1% sodium pyruvate, 2% sodium bicarbonate supplemented with 100 units/mL penicillin, 50 μg/mL streptomycin, 2-mercaptoethanol (0.05 mM) [basal medium] and 10% fetal bovine serum (Catalog #16140089, Life Technologies, Carlsbad, Calif.) at 37° C. and 5% CO2.
Compound Screening: THP-1 cells were cultured in basal media with 1% FBS for 24 hours before the start of the assay. Each compound of Formula (I) was dissolved in DMSO as a 10 mM stock and used to prepare compound source plates. Serial dilution (1:3, 10-point dose-response curves starting from 10 μM) and compound transfer was performed using the ECHO 550 (Labcyte, Sunnyvale, Calif.) into 384-well white low volume assay plates (Greiner Bio-One) with appropriate DMSO backfill for a final DMSO concentration of 0.1%. THP-1 cells were plated at 5000 cells/well in the 384-well plates and incubated at 37° C. for 2 h. 500 ng/mL of LPS was added after 2 hours and cells were incubated for another 22 hours at 37° C. Plates were spun in a centrifuge for 1 minute at 10,000 rpm and a mixture of anti-IL-6 XL665, and anti-IL-6 Cryptate diluted in reconstitution buffer (Cisbio Inc.) was added to each well. Following incubation for 3 hrs at room temperature, homogeneous time-resolved fluorescence (HTRF) was measured using the Envision (Perkin Elmer) at 665 nm and […]. The ratio of fluorescence at 665 nm to 620 nm was used as a readout for IL-6 quantification. All samples were processed in duplicate. Readings were normalized to DMSO treated cells and normalized activities were utilized for EC50 calculations using the dose-response log (inhibitor) vs. response -variable slope (four parameters) nonlinear regression feature available in GraphPad Prism 5.0 (or Dotmatics). For EC50 of >10 μM, the percent inhibition at 10 μM is provided.

- EC50: 0.013 µM
SMILES: CC(C)CC(=O)Nc1cncc(-c2ccc3[nH]nc(-c4nc5c(-c6cccc(F)c6)cncc5[nH]4)c3c2)c1 [Compound 10]
